Assay results: the Kinase Knowledgebase extract (Sharma et al. 2016)
Values after ≈ are worked out from the molar mass of the structure shown.

Legend:
[1] = target: EGFR (UniProt P00533)
[2] = target: EGFR (human) (UniProt P00533)
[3] = target: EGFR (human) (UniProt P00533); settings: a2780ddp
[4] = target: EGFR (human) (UniProt P00533); settings: mb435
[5] = target: EGFR (human) (UniProt P00533); settings: a2780s
[6] = target: EGFR (human) (UniProt P00533); settings: mcf-7
[7] = target: EGFR (human) (UniProt P00533); settings: lox
[8] = target: EGFR (human) (UniProt P00533); settings: sw-620
[9] = target: EGFR (human) (UniProt P00533); settings: a431
[10] = target: EGFR (human) (UniProt P00533); settings: skbr3

Chain of EGFR (P00533 whole entry, looked up): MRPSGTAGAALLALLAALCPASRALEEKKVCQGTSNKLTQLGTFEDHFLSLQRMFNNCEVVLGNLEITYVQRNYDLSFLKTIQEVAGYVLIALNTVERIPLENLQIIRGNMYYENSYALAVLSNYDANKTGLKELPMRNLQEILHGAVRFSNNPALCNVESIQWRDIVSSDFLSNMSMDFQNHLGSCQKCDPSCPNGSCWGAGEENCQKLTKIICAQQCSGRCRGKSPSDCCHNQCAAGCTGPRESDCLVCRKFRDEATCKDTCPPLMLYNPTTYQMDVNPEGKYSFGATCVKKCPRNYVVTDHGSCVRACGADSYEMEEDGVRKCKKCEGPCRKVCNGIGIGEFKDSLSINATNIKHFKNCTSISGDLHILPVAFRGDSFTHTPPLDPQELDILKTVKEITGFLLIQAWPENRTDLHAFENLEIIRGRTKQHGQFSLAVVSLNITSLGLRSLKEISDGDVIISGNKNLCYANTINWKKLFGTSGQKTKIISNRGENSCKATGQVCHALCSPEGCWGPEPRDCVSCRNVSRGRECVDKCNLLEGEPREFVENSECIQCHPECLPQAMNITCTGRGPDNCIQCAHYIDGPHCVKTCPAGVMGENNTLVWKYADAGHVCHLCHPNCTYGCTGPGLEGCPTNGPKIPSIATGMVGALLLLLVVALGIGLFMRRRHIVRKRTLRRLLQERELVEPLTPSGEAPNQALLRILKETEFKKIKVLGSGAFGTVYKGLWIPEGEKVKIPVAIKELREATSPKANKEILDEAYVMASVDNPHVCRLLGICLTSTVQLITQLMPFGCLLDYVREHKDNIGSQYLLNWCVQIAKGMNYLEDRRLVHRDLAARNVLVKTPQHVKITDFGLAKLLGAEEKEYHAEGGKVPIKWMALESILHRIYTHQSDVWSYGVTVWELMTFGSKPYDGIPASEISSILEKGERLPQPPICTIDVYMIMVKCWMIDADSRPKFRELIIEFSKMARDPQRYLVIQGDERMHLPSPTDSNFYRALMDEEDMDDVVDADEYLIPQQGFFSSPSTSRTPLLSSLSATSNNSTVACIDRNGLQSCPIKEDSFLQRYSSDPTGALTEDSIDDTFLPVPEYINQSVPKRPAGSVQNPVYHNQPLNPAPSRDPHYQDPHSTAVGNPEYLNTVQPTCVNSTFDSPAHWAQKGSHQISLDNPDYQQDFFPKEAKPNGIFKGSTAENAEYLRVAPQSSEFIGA
Chain of EGFR (human) (P00533 whole entry, looked up): as above

Structure (SMILES)	IC50 [1]	IC50 [2]	IC50 [3]	IC50 [4]	IC50 [5]	IC50 [6]	IC50 [7]	IC50 [8]	IC50 [9]	IC50 [10]
O=C(/C=C/CBr)Nc1ccc2ncnc(Nc3cccc(Br)c3)c2c1	0.01 nM	–	–	–	–	–	–	–	–	–
CSSC(C)C(=O)Nc1ccc2ncnc(Nc3cccc(Br)c3)c2c1 (centres undefined)	–	0.84 nM	–	–	–	–	–	–	–	–
C=C(CN1CCOCC1)C(=O)Nc1ccc2ncnc(Nc3cccc(Br)c3)c2c1	0.005 nM	–	4 µg/mL (≈ 8.54 µM)	4.5 µg/mL (≈ 9.61 µM)	0.8 µg/mL (≈ 1.71 µM)	17 µg/mL (≈ 36.3 µM)	3.9 µg/mL (≈ 8.33 µM)	5.5 µg/mL (≈ 11.7 µM)	0.6 µg/mL (≈ 1.28 µM)	–
CCN(CC)C/C=C/C(=O)Nc1ccc2ncnc(Nc3cccc(Br)c3)c2c1	0.075 nM	–	43 µg/mL (≈ 94.6 µM)	45 µg/mL (≈ 99 µM)	22 µg/mL (≈ 48.4 µM)	59 µg/mL (≈ 130 µM)	46 µg/mL (≈ 101 µM)	52 µg/mL (≈ 114 µM)	0.01 µg/mL (≈ 0.022 µM)	< 0.01 µg/mL
